Results as given in ChEMBL document CHEMBL4184086, “Sinopestalotiollides A-D, cytotoxic diphenyl ether derivatives from plant endophytic fungus Pestalotiopsis palmarum” (Bioorg Med Chem Lett, 2018).

Legend:
Type in all cases: functional, cell-based
HeLa = assay: Cytotoxicity against human HeLa cells by WST-8 assay
HCT-116 = assay: Cytotoxicity against human HCT116 cells by WST-8 assay
A549 = assay: Cytotoxicity against human A549 cells by WST-8 assay

For COc1cccc2c1C(=O)c1c(O)c3c(c(O)c1C2=O)C[C@@](O)(C(=O)CO)C[C@@H]3O[C@H]1C[C@H](N)[C@H](O)[C@H](C)O1 [DOXORUBICIN], the IC50 (HeLa) was 8.96 µM and the IC50 (HCT-116) was 2.38 µM.

For COc1c(/C=C/C(C)(CO)OC)ccc2c1C(=O)OCc1cc(C)cc(O)c1O2 (configuration not stated), the IC50 (HeLa) was 1.19 µM, the IC50 (HCT-116) was 2.66 µM and the IC50 (A549) was 2.14 µM.

C=C(C)C(CO)c1ccc2c(c1OC)C(=O)OCc1cc(C)cc(O)c1O2 (configuration not stated) showed an IC50 (HeLa) of 18.9 µM, an IC50 (HCT-116) of 15.7 µM and an IC50 (A549) of 31.3 µM.

C=C(C)C(O)Cc1ccc2c(c1OC)C(=O)OCc1cc(C)cc(O)c1O2 (configuration not stated) gave an IC50 (HeLa) of 12.8 µM, an IC50 (HCT-116) of 22.7 µM and an IC50 (A549) of 44.9 µM.

In the case of COc1c(C(CO)C(C)C)ccc2c1C(=O)OCc1cc(C)cc(O)c1O2 (configuration not stated), the IC50 (HeLa) is reported as 14.7 µM, the IC50 (HCT-116) is reported as 18.5 µM and the IC50 (A549) is reported as 36.1 µM.

With COC1=CC(=O)OC(CO)C1 (configuration not stated) the IC50 (HeLa) was 15.6 µM, the IC50 (HCT-116) was 24.4 µM and the IC50 (A549) was 47.8 µM.
